# Experiments:
# P-Rex1 DH domain = target: T1, P-Rex1 DH domain (Homo sapiens, UniProt Q8TCU6); experiment: Liposome-based GEF activity assay, isolated P-Rex1 DH domain; type: biochemical; settings: 10 µM, 200 nM DH domain, without PIP3; read-out: inhibition of constitutive Rac-GEF activity of isolated P-Rex1 DH domain
# T1 construct: 200 nM iDH EE-P-Rex1 DH domain (compounds 11–29); made in house; host or cells: Sf9 cells (baculovirus)
# Method: Full-length N-terminally EE-tagged P-Rex1, P-Rex2, the P-Rex1 DH and DHPH domains and the P-Rex2 DH domain were produced in Sf9 cells using baculoviral transduction and were purified using anti-EE beads, as previously described. Briefly, frozen pellets from 500 ml of Sf9 culture infected with P-Rex expressing high-titre baculovirus were resuspended in ice-cold lysis Sf9-cell lysis buffer 2 (1x PBS, 1% Triton X-100, 5 mM EGTA, 1 mM EDTA, 25 mM NaF, 20 mM β-glycerophosphate, 1 mM DTT, 100 µM PMSF, 10 μg/ml each of leupeptin, pepstatin A, aprotinin and antipain) for 5 min and then ultracentrifuged at 118,000 × g for 1 h at 4°C. Supernatants were incubated with pre-washed anti-EE beads for 90 min on ice with end-over-end rotation. Beads were washed 4 times in wash buffer (2x PBS, 0.1% Triton X-100, 1 mM EGTA) and 5 times in elution buffer (1x PBS, 10% glycerol, 1 mM DTT, 1 mM EGTA, 0.01% Na azide), and protein was eluted by incubation with elution buffer containing Ac-EEYMPME peptide as described above. Protein was concentrated in a YM-100 Centricon (Millipore) at 5000 × g at 4°C. Fatty acid-free BSA and glycerol were added to final concentrations of 2 mg/ml and 50%, respectively. Protein concentration and purity were determined by coomassie staining of SDS-PAGE gels. Full-length Tiam1, expressed in and purified from Sf9 cells, was a kind gift from Angeliki Malliri, CRUK Manchester Institute, UK. […]
# Liposome-based GEF activity assays were carried out essentially as described, except that GEFs were incubated with inhibitor compounds prior to the assay. […] Small GTPases were isolated using anti-EE antibody-coupled Sepharose beads or glutathione Sepharose beads, as appropriate, by incubation on ice for 90 min with end-over-end rotation, four washes in ice-cold wash buffer and resuspension of beads in Ultima Gold scintillation fluid (Perkin Elmer). ^35S-GTPγS incorporation was assessed by scintillation counting (Packard 1600TR, Liquid Scintillation Analyser).
# P-Rex1 DHPH domain = target: T2, P-Rex1 DHPH domain (Homo sapiens, UniProt Q8TCU6); experiment: Mant-GTP GEF activity assay; type: biochemical
# T2 construct: 100 nM EE-P-Rex1 DHPH domains (PREX-in1, compounds 2–10 and 30–128); made in house; host or cells: Sf9 cells (baculovirus)
# T2 sequence (Q8TCU6 49-392 limits assumed): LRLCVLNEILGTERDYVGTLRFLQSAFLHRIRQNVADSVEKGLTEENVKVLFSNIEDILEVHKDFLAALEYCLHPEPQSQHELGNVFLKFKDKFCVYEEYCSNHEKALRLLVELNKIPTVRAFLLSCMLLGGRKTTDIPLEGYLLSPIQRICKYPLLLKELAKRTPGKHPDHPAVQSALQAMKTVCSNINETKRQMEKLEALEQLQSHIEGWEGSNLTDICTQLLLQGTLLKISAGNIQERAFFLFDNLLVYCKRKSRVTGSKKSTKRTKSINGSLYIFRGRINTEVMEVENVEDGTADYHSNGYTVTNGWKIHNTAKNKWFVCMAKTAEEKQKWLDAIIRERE
# Method: The mant-GTP GEF activity assay measures the binding of fluorescent 2’/3’-O-(N-Methyl-anthraniloyl)-guanosine-5’-triphosphate (mant)-GTP to Rac, making use of the spectroscopic differences between bound and free mant-GTP. P-Rex1 DHPH domain protein was diluted to 375 nM in exchange buffer (20 mM Tris, pH 7.5 RT, 50 mM NaCl, 200 mM KCl, 4 mM MgCl2, 50 μg/ml fatty-acid-free BSA). The inhibitors PREX-in1 or EHop-016 were diluted to various concentrations in exchange buffer containing 15% DMSO. 4.4 µl P-Rex1 DHPH domain protein were incubated with 1.1 µl PREX-in1 or EHop-016 for 30 min at 30°C, or were mock treated with 1.1 µl vehicle (15% DMSO). 5 μl of the P-Rex1 DHPH / inhibitor mix was then added to 10 µl of a 1.5x reaction mix containing 225 nM bacteria-derived EE-Rac1, 7.5 µM mant-GTP and 15 µM GTP in exchange buffer in a 96-well plate. Final assay concentrations were 150 nM EE-Rac1, 100 nM P-Rex1 DHPH domain, 5 μM mant-GTP, 10 µM GTP, […] fatty-acid-free BSA, 1% DMSO, and the indicated concentrations of inhibitor. Mant-GTP fluorescence was measured in real time in a PHERAstar 384-well fluorescence plate reader at 25°C for 40 min using 360 nm excitation and 440 nm emission.
# T1 sequence (Q8TCU6 49-240 limits assumed): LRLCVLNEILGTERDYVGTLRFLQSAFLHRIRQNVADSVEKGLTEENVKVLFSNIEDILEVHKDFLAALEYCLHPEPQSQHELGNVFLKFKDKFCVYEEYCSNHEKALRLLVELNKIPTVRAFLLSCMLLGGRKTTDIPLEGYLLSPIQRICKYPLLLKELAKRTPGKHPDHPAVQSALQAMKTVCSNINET
smiles,measurement,setting,value
"COc1ccc(-c2[nH]nc3c2C(c2ccc(-c4ccc(Cl)cc4)o2)C(C#N)=C(N)O3)cc1 (stereo not drawn) [PREX-in1, 6-amino-4-[5-(4-chlorophenyl)-2-furyl]-3-(4-methoxyphenyl)-2,4-dihydropyrano[2,3-c]pyrazole-5-carbonitrile]",inhibition at 10 µM,P-Rex1 DH domain,98%
same,IC50,"P-Rex1 DHPH domain; 150 nM EE-Rac1, 100 nM P-Rex1 DHPH, read-out: IC50 of inhibition of P-Rex1 DHPH in mant-GTP assay",~10 µM
same,effect on P-Rex1 DHPH-dependent mant-GTP loading of Rac1,P-Rex1 DHPH domain; 10 µM,inhibited

# Source: publication PMC9645260, “Small-molecule inhibitors of P-Rex guanine-nucleotide exchange factors” (Small GTPases, 2022)
